Assay results: PubChem BioAssay (NCI)
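Briefly, cells in 96-well plates were exposed to five compound concentrations for 48 h, and endpoints were estimated by linear interpolation. Abbreviation: GI50, concentration required for 50% inhibition of growth. The concentration for full growth arrest is given as TGI.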

Legend:
Assay in all cases: DTP human tumour cell line panel, 48 h
SN12C renal = tested on: SN12C renal
NCI-H522 lung = tested on: NCI-H522 lung
M14 melanoma = tested on: M14 melanoma
IGROV1 ovarian = tested on: IGROV1 ovarian
UACC-257 melanoma = tested on: UACC-257 melanoma
K-562 leukemia = tested on: K-562 leukemia
SR leukemia = tested on: SR leukemia
SK-OV-3 ovarian = tested on: SK-OV-3 ovarian
SNB-19 CNS = tested on: SNB-19 CNS
HCT-15 colon = tested on: HCT-15 colon

SMILES | GI50 (SN12C renal) [µM] | TGI (SN12C renal) [µM] | GI50 (NCI-H522 lung) [µM] | TGI (NCI-H522 lung) [µM] | GI50 (M14 melanoma) [µM] | TGI (M14 melanoma) [µM] | GI50 (IGROV1 ovarian) [µM] | TGI (IGROV1 ovarian) [µM] | GI50 (UACC-257 melanoma) [µM] | TGI (UACC-257 melanoma) [µM] | GI50 (K-562 leukemia) [µM] | TGI (K-562 leukemia) [µM] | GI50 (SR leukemia) [µM] | TGI (SR leukemia) [µM] | GI50 (SK-OV-3 ovarian) [µM] | TGI (SK-OV-3 ovarian) [µM] | GI50 (SNB-19 CNS) [µM] | TGI (SNB-19 CNS) [µM] | GI50 (HCT-15 colon) [µM] | TGI (HCT-15 colon) [µM]
O=C(CI)Nc1ccc(O)c2ccccc12 | 1.61 | 3.3 | 0.142 | 0.297 | 1.06 | 2.63 | 0.296 | 0.926 | 1.54 | 3.14 | 0.328 | > 100 | 0.726 | 3.75 | 4.27 | 14.8 | 3.39 | 11.7 | 0.817 | 2.48
Nc1nc2cc(CC[C@H]3C[C@@H](n4ccc5c(N)ncnc54)[C@H](O)[C@@H]3O)ccc2cc1Br | 8.59 | 22.4 | 9.26 | 28.8 | 11.4 | 25.6 | 10.2 | 23.1 | 3.68 | 19 | 1.38 | > 100 | 18.7 | > 100 | 13.4 | 39.2 | 7.09 | 23.5 | 11.3 | 25.6
CC([C@H]1CC=C2C3CCC4=C[C@@H](N(C)C)CC[C@]4(C)C3CC[C@@]21C)N(C)C (stereo partly drawn) | 2.54 | 12.1 | 7.12 | 25 | 1.76 | 3.53 | 4.88 | – | 6.1 | 19.4 | 0.611 | 3.05 | 0.876 | 4.19 | 3.86 | 11.6 | 7.57 | 20.4 | 1.38 | 3.82
CC1=NOC(=O)/C1=C/c1ccc([N+](=O)[O-])cc1 | – | > 100 | – | > 100 | – | > 100 | – | > 100 | – | > 100 | – | > 100 | – | > 100 | – | > 100 | – | > 100 | – | > 100
CC(=O)O[C@H]1C(=O)[C@@]2(C)[C@H]([C@H](OC(=O)c3ccccc3)[C@]3(O)C[C@H](OC(=O)[C@H](OC(=O)OC[C@H]4COC(C)(C)O4)[C@@H](NC(=O)c4ccccc4)c4ccccc4)C(C)=C1C3(C)C)[C@]1(OC(C)=O)CO[C@@H]1C[C@@H]2O | 0.0483 | > 33.3 | 0.0324 | > 33.3 | 0.0171 | 0.133 | 0.0494 | > 33.3 | – | > 33.3 | 0.0122 | > 33.3 | 0.0126 | > 33.3 | 0.232 | > 33.3 | 0.0615 | > 33.3 | 0.228 | > 33.3
NC(=O)c1cccc(OCC(O)CO)c1 (stereo not drawn) | – | > 100 | – | > 100 | – | > 100 | – | > 100 | – | > 100 | – | > 100 | – | > 100 | – | > 100 | – | > 100 | – | > 100
CC(C)(C)N/N=C(\C(=O)Nc1nc(=S)[nH][nH]1)C1C(=O)Nc2ccccc2S1=O (stereo not drawn) | – | > 100 | – | > 100 | – | > 100 | – | > 100 | – | > 100 | – | > 100 | – | > 100 | – | > 100 | – | > 100 | – | > 100
O=C(C#Cc1ccccc1)C1=Cc2ccccc2OC1 | – | > 100 | – | 3.42 | – | 8.21 | – | 6.37 | – | 8.23 | – | > 100 | – | > 100 | – | 30.9 | – | 29.6 | – | 6.38
COc1ccc(NC(=O)c2sc3nc(C)c(C(=O)/C=C/c4cccc(OC)c4)cc3c2N)cc1 | 1.43 | 4.47 | 1.38 | 5.41 | 1.78 | 18.7 | 1.03 | 2.83 | 1.74 | 11.7 | 1.43 | > 50 | 1.24 | 5.92 | 6.71 | 46 | 1.72 | 6.73 | 1.01 | 2.42
C[C@H]1COCCN1c1cc(C2(S(=O)(=O)C3CC3)CC2)nc(-c2ccc(NC(=S)NCCO)cc2)n1 | 0.0263 | 61.2 | 0.0215 | 64.8 | 0.0287 | 10.1 | < 0.01 | 0.119 | 0.0187 | 0.32 | 0.0498 | > 100 | 0.0296 | > 58.2 | < 0.01 | 0.0556 | 0.061 | 11.5 | 0.17 | > 100
O=C(c1ccccc1)c1c(C(F)(F)F)n([O-])c2cc(C(F)(F)F)ccc2[n+]1=O | 1.83 | 4.4 | 1.23 | 2.72 | 1.68 | 3.17 | 0.207 | 0.489 | 1.71 | 3.35 | 0.231 | 0.559 | 1.17 | 3.53 | 1.77 | 3.21 | 1.89 | 3.46 | 1.6 | 3.24
Cc1c(Cl)cccc1NC(=O)/C=C/c1ccccc1 | – | > 100 | – | > 100 | – | > 100 | – | > 100 | – | > 100 | – | > 100 | – | > 100 | – | > 100 | – | > 100 | – | > 100
